Test results reported in article PMC10449633 (Nature Chemical Biology, 2023).
pIC50: −log10 of the molar value. Values joined by “and” are separate entries in the source; they are usually repeats but may differ in a detail not shown here. Equal values may be shown once. Read-outs that look alike come from different tables or passages of the source. Numbered stars: 1 amine (or outer) side, 2 acyl side, 3 side chain; on linkers, the order of the positions; unused ones are H or OH. Square brackets hold non-standard residues; d marks the D form. Peptide text beside a SMILES is read from it. ξ: configuration not given here. X1 = CN(C(Cc1cn(Cc2ccc(Br)cc2)c2ccccc12)C(=O)[*:2])[*:1]; ξAla(CF3) = NC(CC(F)(F)F)C(=O)O; X2 = N#CCCC(O[*:1])C(=O)[*:2]; NMeL = CN[CH](CC(C)C)C(=O)O; NMeA = CN[CH](C)C(=O)O

Key:
Sec61α Q127A = Sec61α Q127A (Canis lupus familiaris, UniProt P38377, Q127A); assay: Luciferase reporter assay in HEK293 cells expressing Sec61α Q127A; set-up: remaining activity: dose or concentration left out as unconfirmed; settings: HEK293, 24 h, read-out: luciferase reporter activity (% of no-drug control), Q127A
Experimental: (§1) Data are mean values ± s.d. from n = 2 independent experiments.
(§2) HEK293T cells (0.3 × 10^6) were seeded per well of a six-well plate and incubated at 37 °C in 5% CO2 for 24 h to adhere. Each of the two wells was transfected with 1 µg of plasmid encoding a luciferase with the signal peptide of either VCAM1 or pPL using PEI in a 5:1 ratio, after which cells were returned to the incubator for a further 24 h. Transfected cells were then resuspended following trypsinization, cell count estimated using a TC20 Automated Cell Counter (BioRad) and diluted to seed a 96-well flat-bottom plate with 1.6 × 10^4 cells per well. […] Cells were then incubated for a further 24 h, after which the luciferase-containing media were transferred to a clean 96-well plate and stored at −20 °C. Luciferase activity of the media was estimated using a Gaussia-GLOW Juice Luciferase Assay kit from PJK Biotech GmbH as per the manufacturer’s instructions. Luminescence was measured using an EnSpire Multimode plate reader (PerkinElmer). Background luminescence from media placed in a well with neither cells nor drug was subtracted from all values, and measurements were calculated as a percentage of luminescence intensity of a well expressing the appropriate luciferase construct in the absence of any drug. Curves were fitted, and IC50 values were calculated using GraphPad Prism 8.
(§3) WT canine Sec61 was cloned into pcDNA5/FRT/TO (Thermo Fisher Scientific), and point mutations were generated using PCR. All mutants were sequence verified. HEK293 Flp-In T-REx cells (Thermo Fisher Scientific, R78007) were cultured in Dulbecco’s modified Eagle’s medium (Gibco) supplemented with 10% FBS (Gibco) at 37 °C in a humidified 5% CO2 atmosphere. Approximately 0.3 µg of pOG44 and 1 µg of targeting construct plasmids were mixed in 250 µl of OptiMEM (Thermo Fisher Scientific, 51985-026). A total of 3 µl (3 µg) Lipofectamine3000 transfection reagent was then added to the DNA mix and incubated at room temperature for 20 min, and the whole mixture was added to the cells. Cells were exposed to 100 µg ml^−^1 hygromycin B (Invitrogen) and 10 µg ml^−^1 blasticidin for 3–4 weeks until the appearance of resistant colonies. Colonies were expanded into T75 flasks and induced with doxycycline (Sigma-Aldrich, D9891) at a concentration of 1–5 µg ml^−^1 for 48 h. Cells were collected, and total RNA was extracted followed by cDNA amplification and sequencing of Sec61 with gene-specific PCR primers to confirm. Cells were then used for the luciferase reporter assays as above.
(§4) Data are mean values ± SD and are representative of n = 2 independent experiments.

Sec61α V303A = Sec61α V303A (Canis lupus familiaris, UniProt P38377, V303A); assay: Luciferase reporter assay in HEK293 cells expressing Sec61α V303A; set-up: remaining activity: dose or concentration left out as unconfirmed; settings: HEK293, 24 h, read-out: luciferase reporter activity (% of no-drug control), V303A
Experimental: as §1, §2, §3, §4

Sec61α S305A = Sec61α S305A (Canis lupus familiaris, UniProt P38377, S305A); assay: Luciferase reporter assay in HEK293 cells expressing Sec61α S305A; set-up: remaining activity: dose or concentration left out as unconfirmed; settings: HEK293, 24 h, read-out: luciferase reporter activity (% of no-drug control), S305A
Experimental: as §1, §2
HEK293 Flp-In T-REx cells (Thermo Fisher Scientific, R78007) were cultured in Dulbecco’s modified Eagle’s medium (Gibco) supplemented with 10% FBS (Gibco) at 37 °C in a humidified 5% CO2 atmosphere. Approximately 0.3 µg of pOG44 and 1 µg of targeting construct plasmids were mixed in 250 µl of OptiMEM (Thermo Fisher Scientific, 51985-026). A total of 3 µl (3 µg) Lipofectamine3000 transfection reagent was then added to the DNA mix and incubated at room temperature for 20 min, and the whole mixture was added to the cells. Cells were exposed to 100 µg ml^−^1 hygromycin B (Invitrogen) and 10 µg ml^−^1 blasticidin for 3–4 weeks until the appearance of resistant colonies. Colonies were expanded into T75 flasks and induced with doxycycline (Sigma-Aldrich, D9891) at a concentration of 1–5 µg ml^−^1 for 48 h. Cells were collected, and total RNA was extracted followed by cDNA amplification and sequencing of Sec61 with gene-specific PCR primers to confirm. Cells were then used for the luciferase reporter assays as above.
as §4

SARS-CoV-2 = type: cell-based; settings: 48 h
mouse splenocytes = assay: Cytokine secretion assay, stimulated mouse splenocytes (MSD U-PLEX); type: cell-based; settings: 24 h, tested 0.025–25,000 nM
Sec61α R66I = Sec61α R66I (Canis lupus familiaris, UniProt P38377, R66I); assay: Luciferase reporter assay in HEK293 cells expressing Sec61α R66I; set-up: remaining activity: dose or concentration left out as unconfirmed
Chain of Sec61α R66I (P38377 whole entry R66I): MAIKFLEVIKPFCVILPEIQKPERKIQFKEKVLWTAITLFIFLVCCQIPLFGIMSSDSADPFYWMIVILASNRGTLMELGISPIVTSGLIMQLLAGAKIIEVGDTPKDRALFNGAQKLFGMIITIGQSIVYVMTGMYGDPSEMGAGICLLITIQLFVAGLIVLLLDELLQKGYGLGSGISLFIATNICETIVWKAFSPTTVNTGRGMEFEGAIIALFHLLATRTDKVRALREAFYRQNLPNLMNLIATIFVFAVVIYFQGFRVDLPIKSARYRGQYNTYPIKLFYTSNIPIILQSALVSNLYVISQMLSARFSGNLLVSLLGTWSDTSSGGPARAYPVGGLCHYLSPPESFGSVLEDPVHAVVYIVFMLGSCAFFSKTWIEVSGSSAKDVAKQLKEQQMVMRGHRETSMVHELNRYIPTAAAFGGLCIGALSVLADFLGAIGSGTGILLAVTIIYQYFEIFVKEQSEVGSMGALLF
Chain of Sec61α R66I (P60059 whole entry, further chain): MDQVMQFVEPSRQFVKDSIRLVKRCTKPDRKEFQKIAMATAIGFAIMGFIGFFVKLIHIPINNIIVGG
Chain of Sec61α R66I (P60468 whole entry, further chain): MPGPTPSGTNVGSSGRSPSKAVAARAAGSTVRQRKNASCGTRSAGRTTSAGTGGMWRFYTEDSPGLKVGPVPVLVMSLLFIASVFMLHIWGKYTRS
Experimental: as §1, §2, §3, §4

Chain of Sec61α V303A (P60059 whole entry): as the sequence (P60059 whole entry, further chain) above
Chain of Sec61α V303A (P38377 whole entry V303A): as the sequence (P38377 whole entry R66I) above, with I66R, V303A counted along it
Chain of Sec61α V303A (P60468 whole entry, further chain): as the sequence (P60468 whole entry, further chain) above
Chain of Sec61α Q127A (P60059 whole entry): as the sequence (P60059 whole entry, further chain) above
Chain of Sec61α Q127A (P60468 whole entry, further chain): as the sequence (P60468 whole entry, further chain) above
Chain of Sec61α Q127A (P38377 whole entry Q127A): as the sequence (P38377 whole entry R66I) above, with I66R, Q127A counted along it
Chain of Sec61α S305A (P38377 whole entry S305A): as the sequence (P38377 whole entry R66I) above, with I66R, S305A counted along it
Chain of Sec61α S305A (P60059 whole entry, further chain): as the sequence (P60059 whole entry, further chain) above
Chain of Sec61α S305A (P60468 whole entry, further chain): as the sequence (P60468 whole entry, further chain) above

CC(C)CC1NC(=O)C(Cc2cn(Cc3ccc(Br)cc3)c3ccccc23)N(C)C(=O)C(CC(F)(F)F)NC(=O)C(CC(C)C)N(C)C(=O)C(CC(F)(F)F)NC(=O)C(CCC#N)OC(=O)C(C)N(C)C1=O (stereo not shown) [KZR-8445] (cyclo([X1]L[NMeA][X2][ξAla(CF3)][NMeL][ξAla(CF3)]); configuration not given here)
remaining activity (Sec61α Q127A; Drug nM (log10) 1.61439): 32.3% | remaining activity (Sec61α Q127A; Drug nM (log10) 2.09151): 14.7% | remaining activity (Sec61α Q127A; Drug nM (log10) 2.56864): 6.52% | remaining activity (Sec61α Q127A; Drug nM (log10) 3.04576): 3.21% | remaining activity (Sec61α Q127A; Drug nM (log10) 3.52288): 2.56% | remaining activity at 0.004 µM (Sec61α Q127A; Drug nM (log10) 4): 2.87% | remaining activity at 0.000508 µM (Sec61α Q127A; Drug nM (log10) -0.29409): 88.9% | remaining activity at 0.00018303 µM (Sec61α V303A; Drug nM (log10) 0.18303): 95.1% | remaining activity at 0.000660151 µM (Sec61α V303A; Drug nM (log10) 0.660151): 82.2% | remaining activity at 0.00113727 µM (Sec61α V303A; Drug nM (log10) 1.13727): 64.5% | remaining activity (Sec61α V303A; Drug nM (log10) 1.61439): 42% | remaining activity (Sec61α V303A; Drug nM (log10) 2.09151): 21.1% | remaining activity (Sec61α V303A; Drug nM (log10) 2.56864): 8.79% | remaining activity (Sec61α V303A; Drug nM (log10) 3.04576): 3.93% | remaining activity (Sec61α V303A; Drug nM (log10) 3.52288): 2.95% | remaining activity at 0.004 µM (Sec61α V303A; Drug nM (log10) 4): 3.21% | remaining activity at 0.00050805 µM (Sec61α V303A; Drug nM (log10) -0.29409): 96.2% | remaining activity at 0.00018303 µM (Sec61α S305A; Drug nM (log10) 0.18303): 82.1% | remaining activity at 0.000660151 µM (Sec61α S305A; Drug nM (log10) 0.660151): 68.1% | remaining activity at 0.00113727 µM (Sec61α S305A; Drug nM (log10) 1.13727): 47.4% | remaining activity (Sec61α S305A; Drug nM (log10) 1.61439): 27.2% | remaining activity (Sec61α S305A; Drug nM (log10) 2.09151): 13% | remaining activity (Sec61α S305A; Drug nM (log10) 2.56864): 5.54% | remaining activity (Sec61α S305A; Drug nM (log10) 3.04576): 3.19% | remaining activity (Sec61α S305A; Drug nM (log10) 3.52288): 2.55% | remaining activity at 0.004 µM (Sec61α S305A; Drug nM (log10) 4): 3.24% | remaining activity at 0.00050805 µM (Sec61α S305A; Drug nM (log10) -0.29409): 89.3% | viral genome copy number (SARS-CoV-2; 0.01 uM): 25500000 and 22400000 and 23500000 | viral genome copy number (SARS-CoV-2; 0.04 uM): 23500000 and 23900000 and 21400000 | viral genome copy number (SARS-CoV-2; 0.12 uM): 29500000 and 28600000 and 23600000 | viral genome copy number (SARS-CoV-2; 0.37 uM): 48700000 and 30700000 and 26200000 | viral genome copy number (SARS-CoV-2; 1.11 uM): 22100000 and 25700000 and 28600000 | viral genome copy number (SARS-CoV-2; 3.33 uM): 11600000 and 10500000 and 12800000 | viral genome copy number (SARS-CoV-2; 10 uM): 8080000 and 9090000 and 8060000 | pIC50 (mouse splenocytes; LPS-stimulation, read-out: IC50, IL-6 secretion): 6.82 | pIC50 (mouse splenocytes; Mus musculus, Splenocyte, LPS-stimulation, read-out: IC50, IL-1β secretion): < 4.60 | pIC50 (mouse splenocytes; Mus musculus, Splenocyte, LPS-stimulation, read-out: IC50, IL-6 secretion): 6.94 | pIC50 (mouse splenocytes; Mus musculus, Splenocyte, LPS-stimulation, read-out: IC50, IL-23 secretion): 6.69 | pIC50 (mouse splenocytes; Mus musculus, Splenocyte, anti-CD3/CD28-stimulation, read-out: IC50, GM-CSF secretion): 7.51 | pIC50 (mouse splenocytes; Mus musculus, Splenocyte, anti-CD3/CD28-stimulation, read-out: IC50, IFNγ secretion): 7.22 | pIC50 (mouse splenocytes; Mus musculus, Splenocyte, anti-CD3/CD28-stimulation, read-out: IC50, TNFα secretion): 6.99 | pIC50 (mouse splenocytes; anti-CD3/CD28-stimulation, read-out: IC50, GM-CSF secretion): 7.40 | pIC50 (mouse splenocytes; anti-CD3/CD28-stimulation, read-out: IC50, IFNγ secretion): 7.49 | pIC50 (mouse splenocytes; anti-CD3/CD28-stimulation, read-out: IC50, TNFα secretion): 7.07 | remaining activity at 0.00018303 µM (Sec61α R66I; HEK293, 24 h, read-out: luciferase reporter activity (% of no-drug control), R66I, Drug nM (log10) 0.18303): 90.3% | remaining activity at 0.000660151 µM (Sec61α R66I; HEK293, 24 h, read-out: luciferase reporter activity (% of no-drug control), R66I, Drug nM (log10) 0.660151): 85.2% | remaining activity at 0.00113727 µM (Sec61α R66I; HEK293, 24 h, read-out: luciferase reporter activity (% of no-drug control), R66I, Drug nM (log10) 1.13727): 74.3% | remaining activity (Sec61α R66I; HEK293, 24 h, read-out: luciferase reporter activity (% of no-drug control), R66I, Drug nM (log10) 1.61439): 58.4% | remaining activity (Sec61α R66I; HEK293, 24 h, read-out: luciferase reporter activity (% of no-drug control), R66I, Drug nM (log10) 2.09151): 48.6% | remaining activity (Sec61α R66I; HEK293, 24 h, read-out: luciferase reporter activity (% of no-drug control), R66I, Drug nM (log10) 2.56864): 41.2% | remaining activity (Sec61α R66I; HEK293, 24 h, read-out: luciferase reporter activity (% of no-drug control), R66I, Drug nM (log10) 3.04576): 39.3% | remaining activity (Sec61α R66I; HEK293, 24 h, read-out: luciferase reporter activity (% of no-drug control), R66I, Drug nM (log10) 3.52288): 35.2% | remaining activity at 0.004 µM (Sec61α R66I; HEK293, 24 h, read-out: luciferase reporter activity (% of no-drug control), R66I, Drug nM (log10) 4): 39% | remaining activity at 0.00050805 µM (Sec61α R66I; HEK293, 24 h, read-out: luciferase reporter activity (% of no-drug control), R66I, Drug nM (log10) -0.29409): 90% | effect of R66I mutation on sensitivity in secreted GLuc assay (Sec61α R66I; HEK293 cells): conferred resistance
